Molecular target: T1, Ubiquitin carboxyl-terminal hydrolase 30 (Homo sapiens, UniProt Q70CQ3)
T1 sequence (Q70CQ3 whole entry): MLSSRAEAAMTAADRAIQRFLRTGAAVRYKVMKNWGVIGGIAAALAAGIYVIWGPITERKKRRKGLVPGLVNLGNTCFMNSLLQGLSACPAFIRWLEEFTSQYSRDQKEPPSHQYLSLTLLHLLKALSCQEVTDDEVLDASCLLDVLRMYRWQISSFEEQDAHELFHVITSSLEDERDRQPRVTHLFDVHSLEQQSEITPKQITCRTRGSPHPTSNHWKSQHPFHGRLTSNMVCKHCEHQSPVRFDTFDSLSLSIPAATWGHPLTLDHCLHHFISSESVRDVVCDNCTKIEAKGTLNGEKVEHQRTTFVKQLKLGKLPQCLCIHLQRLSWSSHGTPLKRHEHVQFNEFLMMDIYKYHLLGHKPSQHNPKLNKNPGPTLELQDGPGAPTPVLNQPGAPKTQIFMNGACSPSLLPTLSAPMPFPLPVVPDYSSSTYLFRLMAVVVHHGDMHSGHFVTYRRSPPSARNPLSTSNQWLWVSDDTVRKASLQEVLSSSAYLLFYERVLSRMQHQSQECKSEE
Experiment: In Vitro USP30 Biochemical Assay
Procedure: In vitro biochemical assay to establish the potency of compounds for USP30 inhibition: a 384-well plate assay using a fluorophore tagged substrate of USP30 was used for in vitro screening of compounds. Each compound was tested at 10 different concentrations (0.5 to 10,000 nM) in duplicate wells. […] Data were analyzed using Graph Pad Prism software with a four-parameter (floating slope) fit to log concentration data to determine IC50s.

For `CC(C)(C)NS(=O)(=O)c1ccc(NC(=O)[C@H]2CCCN2C(=O)c2ccc(F)cc2)cc1` [US20250162989, Compound I-51], the IC50 was > 10 µM.

From BindingDB's records for patent US20250162989 (Vincere Biosciences, 2025)
